Measured values as given in US20060276445A1, “Bicyclic 6-alkylidene-penems as class-D beta-lactamases inhibitors” (priority 2005, published 2006).

Assays:
[1] = system: E. coli GC 2883 (OXA-10 + PSE-2); experiment: Antimicrobial susceptibility testing, microbroth dilution (NCCLS), piperacillin combined with β-lactamase inhibitor; assay type: cell-based; settings: MIC of piperacillin combined with a constant amount (4 ug/ml) of the inhibitor; class-D producing E. coli GC 2883 (OXA-10 + PSE-2); 35° C. for 18 hours
Procedure: Antimicrobial susceptibility testing. The in vitro activities of the antibiotic, piperacillin in this case, against resistant pathogens expressing class-D enzymes were determined by the microbroth dilution method as recommended by the National Committee for Clinical Laboratory Standards (NCCLS). (NCCLS. 2000. Methods for Dilution Antimicrobial Susceptibility Tests for Bacteria That Grow Aerobically; Approved Standards: M7-A5, vol. 19. National Committee for Clinical Laboratory Standards, Villanova, Pa.). Mueller-Hinton II broth (MHBII)(BBL Cockeysville, Md.), was used for the testing procedure. Microtiter plates containing 50 μL per well of two-fold serial dilutions of piperacillin combined with a constant amount (4 ug/ml) of a B-lactamase inhibitor were inoculated with 50 μL of inoculum to yield the appropriate density (10^5 CFU/mL) in 100 μL final volume. The plates were incubated for 18-22 hours at 35° C. in ambient air. […] The MIC50 data obtained by the above said procedure are enlisted in Table 1. […] Both OXA-10 and PSE-2 are class D β-lactamases. (Bush, K. Jacoby, G. A., Medeiros, A. A. Antimicrob. Agents Chemother., 1995, 39, 1211.)

[2] = system: E. coli GC 2883 (OXA-10 + PSE-2); experiment: as above; assay type: cell-based; settings: Escherichia coli; piperacillin as control, without inhibitor

SMILES	Minimal Inhibitory Concentration (MIC50) Data [1] [µg/mL]	other results
O=C(O)C1=CS[C@@H]2/C(=C\c3cc4c(s3)CCN(Cc3ccccc3)C4)C(=O)N12 [Example 1, (5R,6Z)-6-[(5-benzyl-4,5,6,7-tetrahydrothieno[3,2-c]pyridin-2-yl)methylene]-7oxo-4-thia-1-azabicyclo[3.2.0]hept-2-ene-2-carboxylic acid]	–	melting point: 198 °C
CN1CCn2cc(/C=C3/C(=O)N4C(C(=O)[O-])=CS[C@H]34)nc2C1.[Na+] [Example 2, (5R),(6Z)-6-(7-Methyl-5,6,7,8-tetrahydroimidazo[1,2-a]pyrazin-2-ylmethylene)-7-oxo-4-thia-1-aza-bicyclo[3.2.0]hept-2-ene-2-carboxylic acid, sodium salt]	4	–
O=C([O-])C1=CS[C@@H]2/C(=C\c3cn4c(n3)CNCC4)C(=O)N12.[Na+] [Example 3, (5R),(6Z)-7-Oxo-6-(5,6,7,8-tetrahydroimidazo[1,2-a]pyrazin-2-ylmethylene)-4-thia-1-azabicyclo[3.2.0]hept-2-ene-2-carboxylic acid, sodium salt]	2	–
COc1ccc(CN2CCc3sc(/C=C4/C(=O)N5C(C(=O)O)=CS[C@H]45)cc3C2)cc1 [Example 4]	4	–
O=C([O-])C1=CS[C@@H]2/C(=C\c3cn4c(n3)CSCC4)C(=O)N12.[Na+] [Example 5, (5R),(6Z)-6-(5,6-dihydro-8H-imidazo[2,1-c][1.4]thiazin-2-ylmethylene)-7-oxo-4-thia-1-azabicyclo[3.2.0]hept-2-ene-2-carboxylic acid, sodium salt]	2	–
O=C([O-])C1=CS[C@@H]2/C(=C\c3cn4c(n3)CCC4)C(=O)N12.[Na+] [Example 6, (5R),(6Z)-6-(6,7-Dihydro-5H-pyrrolo[1,2-a]imidazol-2-ylmethylene)-7-oxo-4-thia-1-aza-bicyclo[3.2.0]hept-2-ene-2-carboxylic acid, sodium salt]	2	–
O=C([O-])C1=CS[C@@H]2/C(=C\c3cn4c(n3)COCC4)C(=O)N12.[Na+] [Example 7, (5R),(6Z)-6-(5,6-Dihydro-8H-imidazo[2,1-c][1,4]oxazin-2-ylmethylene)-7-oxo-4-thia-1-azabicyclo[3.2.0]hept-2-ene-2-carboxylic acid, sodium salt]	4	–
O=C([O-])C1=CS[C@@H]2/C(=C\c3cc4n(n3)CCC4)C(=O)N12.[Na+] [Example 8, (5R),(6Z)-6-(5,6-Dihydro-4H-pyrrolo[1,2-b]pyrazol-2-ylmethylene)-7-oxo-4-thia-1-azabicyclo[3.2.0]hept-2-ene-2-carboxylic acid, sodium salt]	4	–
CN1Cc2nc(/C=C3/C(=O)N4C(C(=O)[O-])=CS[C@H]34)cn2CC1=O.[Na+] [Example 10, (5R),(6Z)-6-(7-Methyl-6-oxo-5,6,7,8-tetrahydro-imidazo[1,2-a]pyrazin-2-ylmethylene)-7-oxo-4-thia-1-aza-bicyclo[3.2.0]hept-2-ene-2-carboxylic acid sodium salt]	8	–
CN1CCc2sc(C=C3C(=O)N4C(C(=O)O)=CSC34)cc2C1 (stereo not drawn) [Example 17, 6-(5-Methyl-4,5,6,7-tetrahydro-thieno[3,2-c]pyridin-2-ylmethylene)-7-oxo-4-thia-1-aza-bicyclo[3.2.0]hept-2-ene-2-carboxylic acid]	–	melting point: > 250 °C
CCOC(=O)N1CCc2sc(C=C3C(=O)N4C(C(=O)O)=CSC34)cc2C1 (stereo not drawn) [Example 18, 2-(2-Carboxy-7-oxo-4-thia-1-aza-bicyclo[3.2.0]hept-2-en-6-ylidenemethyl)-6,7-dihydro-4H-thieno[3,2-c]pyridine-5-carboxylic acid ethyl ester]	–	melting point: > 250 °C
O=C([O-])C1=CS[C@@H]2/C(=C\c3cn4c(n3)CN(Cc3ccccc3)CC4)C(=O)N12.[Na+] [Example 20, (5R),(6Z)-6-(7-Benzyl-5,6,7,8-tetrahydroimidazo[1,2-a]pyrazin-2-ylmethylene)-7-oxo-4-thia-1-azabicyclo[3.2.0]hept-2-ene-2-carboxylic acid, sodium salt]	16	–
O=C(O)C1=CS[C@@H]2/C(=C\c3cc4c(s3)CCN(Cc3cccnc3)C4)C(=O)N12 [Example 21]	8	–
O=C(O)C1=CS[C@@H]2/C(=C\c3cc4c(s3)CCN(C(=O)c3cccnc3)C4)C(=O)N12 [Example 22]	16	–
O=C(O)C1=CS[C@@H]2/C(=C\c3cc4c(s3)CCN(C(=O)Cc3ccccc3)C4)C(=O)N12 [Example 23]	8	–
O=C([O-])C1=CS[C@@H]2/C(=C\c3cc4n(n3)CCS(=O)(=O)C4)C(=O)N12.[Na+] [Example 24, (5R),(6Z)-6-(5,5-Dioxo-4,5,6,7-tetrahydro-5λ^6-pyrazolo[5,1-c][1,4]thiazin-2-ylmethylene)-7-oxo-4-thia-1-azabicyclo[3.2.0]hept-2-ene-2-carboxylic acid, sodium salt]	4	–
O=C([O-])C1=CS[C@@H]2/C(=C\c3cc4n(n3)CCNC4)C(=O)N12.[Na+] [Example 25, (5R),(6Z)-7-Oxo-6-(4,5,6,7-tetrahydropyrazolo[1,5-a]pyrazin-2-ylmethylene)-4-thia-1-aza-bicyclo[3.2.0]hept-2-ene-2-carboxylic acid, sodium salt]	4	–
CC1(C)Cc2cc(/C=C3/C(=O)N4C(C(=O)[O-])=CS[C@H]34)nn2C1.[Na+] [Example 26, (5R)(6Z)-6-(5,5-Dimethyl-4H-1.6a-diazapentalen-2-ylmethylene)-7-oxo-4-thia-1-azabicyclo[3.2.0]hept-2-ene-2-carboxylic acid, sodium salt]	4	–
O=C([O-])C1=CS[C@@H]2/C(=C\c3cc4c(o3)CCC4)C(=O)N12.[Na+] [Example 27, (5R),(6Z)-6-(5,6-Dihydro-4H-cyclopenta[b]furan-2-ylmethylene)-7-oxo-4-thia-1-azabicyclo[3.2.0]hept-2-ene-2-carboxylic acid, sodium salt]	2	–
CC1(C)Cn2cc(/C=C3/C(=O)N4C(C(=O)[O-])=CS[C@H]34)nc2CN1.[Na+] [Example 29, (5R),(6Z)-6-(6,6-Dimethyl-5,6,7,8-tetrahydroimidazo[1,2-a]pyrizin-2-ylmethylene)-7-oxo-4-thia-1-azabicyclo[3.2.0]hept-2-ene-2-carboxylic acid, sodium salt]	4	–
O=C(O)C1=CS[C@@H]2/C(=C\c3cnc4n3CCSC4)C(=O)N12 [Example 30, (5R),(6Z)-6-(5,6-Dihydro-8-H-imidazo[2,1-c][1,4]thiazin-3-ylmethylene)-7-oxo-4-thia-1-azabicyclo[3.2.0]hept-2-ene-2-carboxylic acid]	4	–
CC(=O)N1CCc2sc(/C=C3/C(=O)N4C(C(=O)O)=CS[C@H]34)cc2C1 [Example 33, (5R,6Z)-6-[(5-acetyl-4,5,6,7-tetrahydrothieno[3,2-c]pyridin-2-yl)methylene]-oxo-4-thia-1-azabicyclo[3.2.0.]hept-2-ene-2-carboxylic acid]	16	–
O=C([O-])C1=CS[C@@H]2/C(=C\c3cc4n(n3)CCCO4)C(=O)N12.[Na+] [Example 35, (5R)(6Z)-6-(6,7-5H-Dihydropyrazolo[5,1-b]oxazin-2-Ylmethylene)-7-oxo-4-thia-1-azabicyclo[3.2.1]hept-2-ene-2-carboxylic acid, sodium salt]	2	–
O=C([O-])CCC(=O)N1CCn2nc(/C=C3/C(=O)N4C(C(=O)[O-])=CS[C@H]34)cc2C1.[Na+].[Na+] [Example 36, (5R),(6Z)-6-[5-(3-carboxypropionyl)-4,5,6,7-tetrahydropyrazolo[1,5-a]pyrazin-2-ylmethylene]-7-oxo-4-thia-1-azabicyclo[3.2.0]hept-2-ene-carboxylic acid, disodium salt]	4	–
COCC(=O)N1CCn2nc(/C=C3/C(=O)N4C(C(=O)[O-])=CS[C@H]34)cc2C1.[Na+] [Example 37, (5R),(6Z)-6-[5-(2-methoxyacetyl)-4,5,6,7-tetrahydropyrazolo[1,5-a]pyrazin-2-ylmethylene]-7-oxo-4-thia-1-azabicyclo[3.2.0]hept-2-ene-carboxylic acid, sodium salt]	2	–
O=C([O-])C1=CS[C@@H]2/C(=C\c3cc4n(n3)CCN(C3=NCCS3)C4)C(=O)N12.[Na+] [Example 38, (5R),(6Z)-6-[5-(4,5-Dihydrothiazol-2-yl)-4,5,6,7-tetrahydropyrazolo[1,5-a]pyrazin-2-ylmethylene]-7-oxo-4-thia-1-azabicyclo[3.2.0]hept-2-ene-2-carboxylic acid sodium salt]	2	–
CCN1CCN(C(=O)N[C@@H](C(=O)N[C@@H]2C(=O)N3[C@@H]2SC(C)(C)[C@@H]3C(=O)O)c2ccccc2)C(=O)C1=O [piperacillin]	–	MIC50 [2]: > 64 µg/mL
